Series [1] in a line: Exposure after dosing crystalline HEP in animal species. The series is classed as in vivo. Conditions: crystalline form dosed in animal species.
The nature of series [2]: Aqueous solubility of HEP. The series is classed as physicochemical.

The structures appear in SMILES notation.

As for `CCC(=O)c1csc(NC(=O)[C@H]([C@@H](C)c2ccccc2)N2C(=O)N[C@H](c3ccc(OCCO)cc3)C2=O)n1` [HEP, (2S,3S)-2-{(R)-4-[4-(2-hydroxy-ethoxy)-phenyl]-2,5-dioxo-imidazolidin-1-yl}-3-phenyl-N-(4-propionyl-thiazol-2-yl)-butyramide], the “Exposure of crystalline form (even nanocrystalline)” value in series [1] is recorded as “very low exposure”. In addition, the Aqueous solubility entry in series [2] was “poor aqueous solubility”.

(Values after patent US20120129898A1, “PHARMACEUTICAL COMPOSITIONS FOR POORLY SOLUBLE DRUGS” (priority 2007, published 2012).)
